Data: patent publication US12338256B2, “Aza-tetracyclic oxazepine compounds and uses thereof” (Genentech, Inc., priority 2022, dated 2025)
Each block holds one compound with its values, some of them ahead of it.

Tests used:
Format in all cases: cell-based
[1] = test system: HPAC (homozygous mutant KRAS G12D human pancreatic cell line); assay: KRAS 3D-Cell Proliferation Assay, HPAC (Example 503); conditions: Homo sapiens, HPAC, 168 h, HPAC 3D culture, 7 days, CellTiter-Glo 3D; read-out: Prolif HPAC 3D ATP IC50
Outline: (§1)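 Cells grown in 3D in ultra-low attachment plates (RPMI-1640 with 10% FBS and 2 mM L-glutamine) received compound dilution series after overnight attachment, at 0.3% DMSO final, for 7 days at 37° C. ATP luminescence (CellTiter-Glo 3D) normalized to DMSO and 1 μM staurosporine; IC50 from 4-parameter Hill fit.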

[2] = test system: PC-9 (KRAS wild type human lung adenocarcinoma cell line); assay: KRAS 3D-Cell Proliferation Assay, PC-9 (Example 503); conditions: 168 h, PC-9 3D culture, 7 days, CellTiter-Glo 3D, read-out: Prolif PC9 3D ATP IC50
Outline: as §1

[3] = test system: H1975 (KRAS wild type human lung adenocarcinoma cell line); assay: KRAS 3D-Cell Proliferation Assay, H1975 (Example 503); conditions: Homo sapiens, NCI-H1975, 168 h, H1975 3D culture, 7 days, CellTiter-Glo 3D; read-out: Prolif H1975 3D ATP IC50
Outline: as §1

[4] = test system: AsPC-1 (homozygous mutant KRAS G12D human pancreatic cell line); assay: KRAS 3D-Cell Proliferation Assay, AsPC-1 (Example 503); conditions: Homo sapiens, ASPC1, 168 h, AsPC-1 3D culture, 7 days, CellTiter-Glo 3D; read-out: Prolif AsPC-1 3D ATP IC50
Outline: as §1

SMILES: Cc1c(F)c(N)cc(-c2nc3c4c(nc(OC[C@@H]5CC[C@H]6COCCN65)nc4c2F)N2C[C@H]4CC[C@H](N4)[C@H]2[C@H](C)O3)c1C(F)(F)F [Compound 31, 2-fluoro-5-((5S,5aS,6S,9R)-1-fluoro-12-(((6S,8aS)-hexahydro-1H-pyrrolo[2,1-c][1,4]oxazin-6-yl)methoxy)-5-methyl-5a,6,7,8,9,10-hexahydro-5H-4-oxa-3,10a,11,13,14-pentaaza-6,9-methanonaphtho[1,8-ab]heptalen-2-yl)-3-methyl-4-(trifluoromethyl)aniline]
IC50 [1]: 0.808 nM | IC50 [2]: 3790 nM | IC50 [3]: 423 nM | IC50 [4]: 1.64 nM

SMILES: Cc1cc(N)c(F)c(-c2nc3c4c(nc(OC[C@@]56CCCN5C[C@H](F)C6)nc4c2F)N2C[C@H]4CC[C@H](N4)[C@H]2[C@H](C)O3)c1C(F)(F)F [Compound 34, 2-Fluoro-3-((5S,5aS,6S,9R)-1-fluoro-12-(((2R,7aS)-2-fluorotetrahydro-1H-pyrrolizin-7a(5H)-yl)methoxy)-5-methyl-5a,6,7,8,9,10-hexahydro-5H-4-oxa-3,10a,11,13,14-pentaaza-6,9-methanonaphtho[1,8-ab]heptalen-2-yl)-5-methyl-4-(trifluoromethyl)aniline]
IC50 [1]: 0.54 nM | IC50 [2]: 6950 nM | IC50 [3]: 340 nM | IC50 [4]: 0.692 nM

SMILES: C[C@@H]1Oc2nc(-c3c(C(F)(F)F)ccc(N)c3F)c(F)c3nc(OC[C@@]45CCCN4C[C@H](F)C5)nc(c23)N2C[C@H]3CC[C@H](N3)[C@@H]12 [Compound 35, 2-fluoro-3-((5S,5aS,6S,9R)-1-fluoro-12-(((2R,7aS)-2-fluorotetrahydro-1H-pyrrolizin-7a(5H)-yl)methoxy)-5-methyl-5a,6,7,8,9,10-hexahydro-5H-4-oxa-3,10a,11,13,14-pentaaza-6,9-methanonaphtho[1,8-ab]heptalen-2-yl)-4-(trifluoromethyl)aniline]
IC50 [1]: 7.4 nM | IC50 [2]: 9170 nM | IC50 [3]: 5870 nM | IC50 [4]: 10.6 nM

SMILES: Cc1cc(N)c(F)c(-c2nc3c4c(nc(OC[C@@]56CCCN5C[C@H](F)C6)nc4c2F)N2C[C@H]4CC[C@H](N4)[C@H]2CO3)c1C(F)(F)F [Compound 36, 2-fluoro-3-((5aS,6S,9R)-1-fluoro-12-(((2R,7aS)-2-fluorotetrahydro-1H-pyrrolizin-7a(5H)-yl)methoxy)-5a,6,7,8,9,10-hexahydro-5H-4-oxa-3,10a,11,13,14-pentaaza-6,9-methanonaphtho[1,8-ab]heptalen-2-yl)-5-methyl-4-(trifluoromethyl)aniline]
IC50 [1]: 31.4 nM | IC50 [2]: 6110 nM | IC50 [3]: 1130 nM | IC50 [4]: 52.4 nM

SMILES: C[C@@H]1Oc2nc(-c3cncc4cccc(Cl)c34)c(F)c3nc(OC[C@@]45CCCN4C[C@H](F)C5)nc(c23)N2C[C@H]3CC[C@H](N3)[C@@H]12 [Compound 38, (5S,5aS,6S,9R)-2-(5-Chloroisoquinolin-4-yl)-1-fluoro-12-(((2R,7aS)-2-fluorotetrahydro-1H-pyrrolizin-7a(5H)-yl)methoxy)-5-methyl-5a,6,7,8,9,10-hexahydro-5H-4-oxa-3,10a,11,13,14-pentaaza-6,9-methanonaphtho[1,8-ab]heptalene]
IC50 [1]: 96.1 nM | IC50 [2]: 7380 nM | IC50 [3]: 2830 nM | IC50 [4]: 270 nM

SMILES: C#Cc1cccc2cncc(-c3nc4c5c(nc(OC[C@@]67CCCN6C[C@H](F)C7)nc5c3F)N3C[C@H]5CC[C@H](N5)[C@H]3[C@H](C)O4)c12 [Compound 39, (5S,5aS,6S,9R)-2-(5-Ethynylisoquinolin-4-yl)-1-fluoro-12-(((2R,7aS)-2-fluorotetrahydro-1H-pyrrolizin-7a(5H)-yl)methoxy)-5-methyl-5a,6,7,8,9,10-hexahydro-5H-4-oxa-3,10a,11,13,14-pentaaza-6,9-methanonaphtho[1,8-ab]heptalene]
IC50 [1]: 35.8 nM | IC50 [2]: ≥ 20000 nM | IC50 [3]: 3970 nM | IC50 [4]: 55.8 nM

SMILES: C#Cc1cccc2cncc(-c3nc4c5c(nc(OC[C@@]67CCCN6CC6(CC6(F)F)C7)nc5c3F)N3C[C@H]5CC[C@H](N5)[C@H]3[C@H](C)O4)c12 (stereo partly drawn) [Compound 40, (5S,5aS,6S,9R)-12-(((7a′S)-2,2-difluorodihydro-1′H,3′H-spiro[cyclopropane-1,2′-pyrrolizin]-7a′(5′H)-yl)methoxy)-2-(5-ethynylisoquinolin-4-yl)-1-fluoro-5-methyl-5a,6,7,8,9,10-hexahydro-5H-4-oxa-3,10a,11,13,14-pentaaza-6,9-methanonaphtho[1,8-ab]heptalene]
IC50 [1]: 36 nM | IC50 [2]: 15700 nM | IC50 [3]: 20000 nM | IC50 [4]: 27.7 nM

SMILES: Cc1cc(N)nc(-c2nc3c4c(nc(OC[C@@]56CCCN5C[C@H](F)C6)nc4c2F)N2C[C@H]4CC[C@H](N4)[C@H]2[C@H](C)O3)c1C(F)(F)F [Compound 43, 6-((5S,5aS,6S,9R)-1-Fluoro-12-(((2R,7aS)-2-fluorotetrahydro-1H-pyrrolizin-7a(5H)-yl)methoxy)-5-methyl-5a,6,7,8,9,10-hexahydro-5H-4-oxa-3,10a,11,13,14-pentaaza-6,9-methanonaphtho[1,8-ab]heptalen-2-yl)-4-methyl-5-(trifluoromethyl)pyridin-2-amine]
IC50 [1]: 16.8 nM | IC50 [2]: ≥ 20000 nM | IC50 [3]: 4290 nM | IC50 [4]: 43.4 nM

SMILES: Cc1cc(N)nc(-c2nc3c4c(nc(OC[C@@]56CCCN5CC5(CC5(F)F)C6)nc4c2F)N2C[C@H]4CC[C@H](N4)[C@H]2[C@H](C)O3)c1C(F)(F)F (stereo partly drawn) [Compound 47, 6-((5S,5aS,6S,9R)-12-(((7a′S)-2,2-difluorodihydro-1′H,3′H-spiro[cyclopropane-1,2′-pyrrolizin]-7a′(5′H)-yl)methoxy)-1-fluoro-5-methyl-5a,6,7,8,9,10-hexahydro-5H-4-oxa-3,10a,11,13,14-pentaaza[6,9]methanonaphtho[1,8-ab]heptalen-2-yl)-4-methyl-5-(trifluoromethyl)pyridin-2-amine]
IC50 [1]: 2.95 nM | IC50 [2]: 8840 nM | IC50 [3]: 1530 nM | IC50 [4]: 3.97 nM

SMILES: C=C1CN2CCC[C@@]2(COc2nc3c4c(nc(-c5nc(N)cc(C)c5C(F)(F)F)c(F)c4n2)O[C@@H](C)[C@@H]2[C@@H]4CC[C@H](CN32)N4)C1 [Compound 48, 6-((5S,5aS,6S,9R)-1-fluoro-5-methyl-12-(((S)-2-methylenetetrahydro-1H-pyrrolizin-7a(5H)-yl)methoxy)-5a,6,7,8,9,10-hexahydro-5H-4-oxa-3,10a,11,13,14-pentaaza-6,9-methanonaphtho[1,8-ab]heptalen-2-yl)-4-methyl-5-(trifluoromethyl)pyridin-2-amine]
IC50 [1]: 5.52 nM | IC50 [2]: ≥ 20000 nM | IC50 [3]: 5760 nM | IC50 [4]: 8.24 nM

IC50 [2]: 4910 nM | IC50 [3]: 455 nM | IC50 [4]: 13 nM
SMILES: C#Cc1cccc2cc(O)cc(-c3nc4c5c(nc(OC[C@@]67CCCN6C[C@H](F)C7)nc5c3F)N3C[C@H]5CC[C@H](CN5CCCF)[C@H]3CO4)c12 [Compound 50, 5-Ethynyl-4-((5aS,6R,9R)-1-fluoro-14-(3-fluoropropyl)-12-(((2R,7aS)-2-fluorotetrahydro-1H-pyrrolizin-7a(5H)-yl)methoxy)-5a,6,7,8,9,10-hexahydro-5H-4-oxa-3,10a,11,13,14-pentaaza-6,9-ethanonaphtho[1,8-ab]heptalen-2-yl)naphthalen-2-ol]
IC50 [1]: 25.8 nM

IC50 [2]: 19500 nM | IC50 [3]: 1820 nM | IC50 [4]: 51.2 nM
SMILES: C#Cc1cccc2cc(O)cc(-c3nc4c5c(nc(OC[C@@]67CCCN6C[C@H](F)C7)nc5c3F)N3C[C@H]5CC[C@H](CN5CC5COC5)[C@H]3CO4)c12 [Compound 51, 5-ethynyl-4-((5aS,6R,9R)-1-fluoro-12-(((2R,7aS)-2-fluorotetrahydro-1H-pyrrolizin-7a(5H)-yl)methoxy)-14-(oxetan-3-ylmethyl)-5a,6,7,8,9,10-hexahydro-5H-4-oxa-3,10a,11,13,14-pentaaza-6,9-ethanonaphtho[1,8-ab]heptalen-2-yl)naphthalen-2-ol]
IC50 [1]: 73 nM

SMILES: C#Cc1cccc2cc(O)cc(-c3nc4c5c(ncnc5c3F)N3C[C@H]5CC[C@H](N5)[C@H]3[C@H](C)O4)c12 [Compound 54, 5-ethynyl-4-((5S,5aS,6S,9R)-1-fluoro-5-methyl-5a,6,7,8,9,10-hexahydro-5H-4-oxa-3,10a,11,13,14-pentaaza-6,9-methanonaphtho[1,8-ab]heptalen-2-yl)naphthalen-2-ol]
IC50 [1]: 3420 nM | IC50 [2]: ≥ 20000 nM | IC50 [3]: 20000 nM | IC50 [4]: 2090 nM

SMILES: C=C1CN2CCC[C@@]2(COc2nc3c4c(nc(-c5cc(N)c(F)c(C)c5C(F)(F)F)c(F)c4n2)O[C@@H](C)[C@@H]2[C@@H]4CC[C@H](CN32)N4)C1 [Compound 57, 2-Fluoro-5-((5S,5aS,6S,9R)-1-fluoro-5-methyl-12-(((S)-2-methylenetetrahydro-1H-pyrrolizin-7a(5H)-yl)methoxy)-5a,6,7,8,9,10-hexahydro-5H-4-oxa-3,10a,11,13,14-pentaaza-6,9-methanonaphtho[1,8-ab]heptalen-2-yl)-3-methyl-4-(trifluoromethyl) aniline]
IC50 [1]: 2.59 nM | IC50 [2]: 3110 nM | IC50 [3]: 251 nM | IC50 [4]: 0.361 nM
